Experimental data from patent publication US8389573B2, “Glycyrrhetinic acid derivatives” (Wellington Laboratories Inc., priority 2006, dated 2013).

Legend:
PPARγ = assay: PPARγ-GAL4/GAL4-Luc or PPRE3-Luc transactivation in LNCaP cells; assay type: cell-based
Excerpt: Transfections: The Gal4 reporter construct containing 5× Gal4 response elements (pGal4) was kindly provided by Dr. Marty Mayo (University of North Carolina, Chapel Hill, N.C.). The Gal4 DBD-PPARγ construct was a gift of Dr. Jennifer L. Oberfield (Glaxo Wellcome Research and Development, Research Triangle Park, N.C.). The PPRE-luc construct contains three tandem PPREs with a minimal TATA sequence linked to the luciferase gene in pGL2. The AR-luc construct containing the −5400 to +580 region of the androgen receptor promoter was provided by Dr. Donald J. Tindall (Mayo Clinic, Rochester, Minn.), and the PSA-luc construct containing the 5.8-kilobase region of the PSA promoter was provided by Dr. Hong-Wu Cheng (University of California, Davis, Calif.). LNCaP cells (1×10^5) were seeded in 12-well plates in DMEM/Ham's F-12 media supplemented with 2.5% charcoal-stripped FBS and grown overnight. Transient transfections were performed using Lipofectamine reagent (Invitrogen) according to the protocol provided by the manufacturer. Transfection studies were performed using 0.4 μg of Gal4Luc, 0.04 μg of β-galactosidase, 0.04 μg of Gal4 DBD-PPARγ, 0.4 μg of AR-luc, and 0.3 μg of PSA-luc. Six hr after transfection, the transfection mix was replaced with complete media containing either vehicle (DMSO) or the indicated ligand for 20 to 22 hr. Cells were then lysed with 100 μl of 1× reporter lysis buffer, and 30 μl of cell extract was used for luciferase and β-galactosidase assays. A Lumicount luminometer (PerkinElmer Life and Analytical Sciences) was used to quantify luciferase and β-galactosidase activities, and the luciferase activities were normalized to β-galactosidase activity.

[1] = molecular target: T1, PPARγ-coactivator interactions (Homo sapiens, UniProt P37231); assay: Mammalian two-hybrid assay (VP-PPARγ, GAL4-coactivator) in SW480 cells; assay type: cell-based
T1 construct: expressed in transfected cells; host or cells: SW480 cells, transient transfection (LipofectAMINE)
T1 sequence (P37231 238-503 limits assumed): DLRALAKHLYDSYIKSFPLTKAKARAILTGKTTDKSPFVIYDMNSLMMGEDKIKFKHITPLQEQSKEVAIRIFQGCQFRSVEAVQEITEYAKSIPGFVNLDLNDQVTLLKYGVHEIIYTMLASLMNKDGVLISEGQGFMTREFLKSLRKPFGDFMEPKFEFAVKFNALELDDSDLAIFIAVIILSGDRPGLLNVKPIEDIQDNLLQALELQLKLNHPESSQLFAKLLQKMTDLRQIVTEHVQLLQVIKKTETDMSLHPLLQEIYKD
Method: SW480 and HT29 cell lines were plated in 12-well plates at 1×10^5 cells/well in DMEM/F-12 media supplemented with 2.5% charcoal-stripped fetal bovine serum. After growth for 16 h, various amounts of DNA, i.e. Gal4Luc (0.4 μg), β-gal (0.04 μg), VP-PPARγ (0.04 μg), pMSRC1 (0.04 μg), pMSRC2 (0.04 μg), pMSRC3 (0.04 μg), pMPGC-1 (0.04 μg), pMDRIP205 (0.04 μg), and pMCARM-1 (0.04 μg) were transfected by LipofectAMINE (Invitrogen) according to the manufacturer's protocol. After 5 h of transfection, the transfection mix was replaced with complete media containing either vehicle (DMSO) or the indicated ligand for 20-22 h. Cells were then lysed with […] of 1× reporter lysis buffer, and 30 μl of cell extract was used for luciferase and β-galactosidase assays. Lumicount was used to quantitate luciferase and β-galactosidase activities, and the luciferase activities were normalized to β-galactosidase activity.

LNCaP cells = assay: Western blot analysis and DNA fragmentation assay in LNCaP cells; assay type: cell-based, human
Method: Cell Proliferation and DNA Fragmentation Assays: LNCaP prostate cancer cells (2×10^4 per well) were added to 12-well plates and allowed to attach for 24 hr. The medium was then changed to DMEM/Ham's F-12 media containing 2.5% charcoal-stripped FBS, and either vehicle (DMSO) or the indicated C-DIMs were added. Fresh medium and indicated compounds were added every 48 hr, and cells were then trypsinized and counted after 2, 4, and 6 days using a Coulter Z1 cell counter (Beckman Coulter, Fullerton, Calif.). Each experiment was done in triplicate, and results are expressed as means±S.E. for each set of three experiments. The DNA fragmentation assay was performed using a BioVision Apoptotic DNA ladder extraction kit (BioVision, Mountain View, Calif.) according to the manufacturer's protocol.
Western Blot Analysis: Cells were seeded in DMEM:Ham's F-12 media containing 2.5% charcoal-stripped FBS for 24 hr and then treated with either the vehicle (DMSO) or the indicated compounds. Cells were collected by scraping in 150 μl high salt lysis buffer (50 mM HEPES, 0.5 M NaCl, 1.5 mM MgCl2, 1 mM EGTA, 10% (v/v) glycerol, 1% (v/v) Triton-X-100 and 5 μL/ml of Protease Inhibitor Cocktail (Sigma). The lysates were incubated on ice for 1 hr with intermittent vortexing followed by centrifugation at 20,000 g for 10 min at 4° C. Before electrophoresis, samples were boiled for 3 min at 100° C.; the amount of protein was determined and 60 μg protein applied per lane. Samples were subjected to SDS-PAGE on 10% gel at 120 V for 3 to 4 hr. Proteins were transferred on to polyvinylidene difluoride membrane (PVDF; Bio-Rad, Hercules, Calif.) at 0.9 amp for 90 min at 4° C. in 1× transfer buffer (48 mM Tris-HCl, 39 mM glycine, and 0.025% SDS). The membranes were blocked for 30 min with 5% TBST-Blotto (10 mM Tris-HCl, 150 mM NaCl (pH 8.0), 0.05% Triton X-100 and 5% non-fat dry milk) and incubated in fresh 5% TBST-Blotto with primary antibody overnight with gentle shaking at 4° C. After washing with TBST for 10 min, the PVDF membrane was incubated with secondary antibody (1:5000) in 5% TBST-Blotto for 2-3 hr. The membrane was washed with TBST for 10 min and incubated with 10 ml of chemiluminescence substrate (PerkinElmer Life Sciences) for 1.0 min and exposed to ImageTeK-H medical imaging film (Eastman American X-ray Supply, Inc.).

p21 promoter = p21 promoter construct luciferase assay in LNCaP cells; assay type: cell-based; details: 1-5 μM

COC(=O)[C@@]1(C)CC[C@]2(C)CC[C@]3(C)C(=CC(=O)[C@@H]4[C@@]5(C)C=C(C#N)C(=O)C(C)(C)[C@@H]5CC[C@]43C)[C@@H]2C1 [β-CDODA-Me, Methyl 2-cyano-3,11-dioxo-18β-oleana-1,12-dien-30-oate]
induced transactivation after cotreatment with 10 μM T007 (PPARγ): significant inhibition of induced transactivation | PPARγ-dependent transactivation (luciferase activity) (PPARγ; 1-5 μM): significantly induced luciferase activity | PPARγ interaction with coactivators PGC-1 and SRC-1 [1]: induced transactivation | ligand-induced interactions of SRC-2, SRC-3, CARM1, TRAP220 and SMRT with PPARγ [1]: not observed | concentrations that decrease AR and PSA expression (LNCaP cells): 1 to 2.5 µM | degradation of cyclin D1 after cotreatment with MG132 (LNCaP cells): inhibited | downregulation of AR, PSA and FKBP51 proteins after cotreatment with T007 or MG132 (LNCaP cells): not affected | induced proapoptotic responses after cotreatment with T007 (LNCaP cells): not inhibited | JNK (p-JNK), PI3K (p-Akt) and MAPK (p-Erk) pathways (LNCaP cells; 2.5 μM): induces activation | decreased expression of AR, PSA and FKBP51 with kinase inhibitors (LNCaP cells; 2.5 μM): unaffected | induction of EGR-1, ATF-3 and NAG-1 (LNCaP cells; 2.5 μM): time-dependent induction | p-Erk activation (LNCaP cells; 2.5 μM): remained elevated for 24 hr | time of maximal activation of JNK (LNCaP cells; 2.5 μM): 8 h | time of maximal activation of PI3K (LNCaP cells; 2.5 μM): 8 to 12 h | AR, PSA and FKBP51 expression (LNCaP cells; 1-5 μM, presence or absence of 10 nM DHT): concentration-dependent decrease | NAG-1 and ATF-3 proapoptotic proteins (LNCaP cells; 24 hr, 1-5 μM): induced | cyclin D1 proteins and Rb phosphorylation (LNCaP cells; 24 hr, 1-5 μM): decrease | p27 and p21 proteins (LNCaP cells; 24 hr, 1-5 μM): concentration-dependent induction | proapoptotic responses accompanying NAG-1/ATF-3 induction (LNCaP cells; 24 hr, 1-5 μM): caspase-dependent PARP cleavage, DNA fragmentation, and decreased bcl2 expression | time course of PARP cleavage, AR and Sp1 (LNCaP cells; up to 24 hr): time-dependent induction of PARP cleavage and a decrease of both AR and Sp1 | luciferase activity of p21 promoter constructs (p21 promoter): induces luciferase activity
